Measured values reported in patent US10206896B2, “Method of treating delayed healing of a wound associated with diabetes” (KUWAIT UNIVERSITY, priority 2014, dated 2019).

Assays:
[1] = test system: diabetic fibroblasts (DFs)
[2] = test system: diabetic fibroblasts (DFs); assay: BrdU incorporation into DNA (cell proliferation) in diabetic fibroblasts; format: cell-based, GotoKakizaki (GK) rat; settings: treated DFs compared with DFs
Protocol: (§1) Cell culture and HP treatment.
Assessment of key fibroblast functions essential for wound healing. To assess cell proliferation, fibroblasts were seeded into a 96-well plate at a density of 1×10^4 per well and were allowed to adhere overnight in DMEM medium supplemented with 10% FCS. After arrest by incubation in serum-free medium for 24 hours, the cells were exposed to growth factors, and the incorporation of bromodeoxyuridine (BrdU) into DNA was determined using the manufacturer's protocol (Roche Diagnostics). Similarly, for the in vitro wound (migration) experiments, cultured fibroblasts were grown in six-well plates until they reached confluence. The medium was removed, the cells were washed with PBS 3× before culturing was continued in serum-free DMEM containing 0.5% BSA for an additional 24 hours. Thereafter, the monolayer was artificially wounded by using a pipette tip to scratch across the plate; the cells were washed with PBS to remove the detached cells and then cultured in serum-free medium in the presence of mitomyocin C (10 μg/ml) to prevent cell proliferation. The rate of wound healing was quantified as described in the literature

[3] = test system: chronic oxidative stress fibroblasts (OS-CFs); assay: Premature senescence in chronic oxidative stress fibroblasts; format: cell-based, Wistar rat
Protocol: as §1
Oxidatively-stressed CFs (OS-CFs). A heightened state of oxidative stress and premature senescence in CFs were induced using hydrogen peroxide (HP) as a stressor. The HP treatment was conducted by seeding approximately 1×10^6 cells in a T75 tissue culture flask. Twenty-four hours later, the cells were exposed to a sublethal dose of HP (150 μM) for 2 hours, washed 2× with PBS and after 4 days of culturing in HP free medium; they were split in a 1:2 ratio, and then the aforementioned protocol was repeated again for cells receiving the second and third HP treatment. A third passage HP-treated CFs denoted in the current study as (OS-CFs) together with the corresponding CFs and DFs were used in most of the assays outlined below.

[4] = test system: circular wound of a diabetic rat; assay: Full-thickness excisional circular wound, rate of wound closure; format: in vivo, GotoKakizaki (GK) rat; settings: composition of 30 μM 18α-GA and pluronic acid applied to the wound
Protocol: Wound model, drug treatment and macroscopic evaluation. All of the animal procedures were performed in accordance with the NIH Guidance for the Care and Use of Laboratory Animals. Female GotoKakizaki rats (GK) were used in the current study. Detailed information regarding this animal model for non-obese type 2 diabetes has been previously described. Weight and age-matched female Wistar rats (Kuwait University breeding colony) served as the corresponding controls. All of the animals were maintained under standard conditions with a 12 hour on/off light cycle, commercial diet, and water ad libitum. […]
The targeted depletion of caveolin-1 was achieved using the antisense vivo-morpholino oligomers (MOs) that were synthesized and designed by Gene Tools, LLC (Eugene, Oreg.). […] The specificity of the cav-1 morphant phenotype was determined using rat caveolin-1 cRNA that lacked the antisense MO binding site. […] The wound area was analyzed using Adobe Photoshop (version 7.0; Adobe Systems), and the percentage of wound closure was derived by the following formula: (1−[current wound size/initial wound size])×100. […]
Full-thickness excisional wounds were induced in the control and GK (a non-obese genetic model of type 2 diabetes), and key parameters related to cellular senescence, caveolin-1 signaling and oxidative stress were measured 10 days post-injury. […]

[5] = test system: control fibroblasts (CFs); assay: BrdU incorporation into DNA (cell proliferation) in control fibroblasts; format: cell-based, Wistar rat; settings: 24-hr serum starved CFs, vs starved cells; dose providing the maximum response (IGF 50 ng, PDGF 1 nM, EGF 100 ng)
Protocol: Cell culture and HP treatment. […] Assessment of key fibroblast functions essential for wound healing. To assess cell proliferation, fibroblasts were seeded into a 96-well plate at a density of 1×10^4 per well and were allowed to adhere overnight in DMEM medium supplemented with 10% FCS. After arrest by incubation in serum-free medium for 24 hours, the cells were exposed to growth factors, and the incorporation of bromodeoxyuridine (BrdU) into DNA was determined using the manufacturer's protocol (Roche Diagnostics). Similarly, for the in vitro wound (migration) experiments, cultured fibroblasts were grown in six-well plates until they reached confluence. The medium was removed, the cells were washed with PBS 3× before culturing was continued in serum-free DMEM containing 0.5% BSA for an additional 24 hours. […] The rate of wound healing was quantified as described in the literature […] Caveolin-1 protein expression and PDGF-induced phosphorylation of Akt (20 min) and ERK (10 min) in 24-hr serum starved fibroblasts were determined using a Western-blotting-based technique. A proliferation index encompassing BrdU incorporation into DNA and cell cycle progression was evaluated in response to various growth factors (e.g., IGF, 50 ng; PDGF, 1 nM; EGF, 100 ng) in 24-hr serum starved fibroblast. […]

[6] = test system: control fibroblasts (CFs); assay: In vitro scratch wound (cell migration) in control fibroblasts; format: cell-based, Wistar rat; settings: 24 hrs post-injury
Protocol: Cell culture and HP treatment. […] Assessment of key fibroblast functions essential for wound healing. To assess cell proliferation, fibroblasts were seeded into a 96-well plate at a density of 1×10^4 per well and were allowed to adhere overnight in DMEM medium supplemented with 10% FCS. After arrest by incubation in serum-free medium for 24 hours, the cells were exposed to growth factors, and the incorporation of bromodeoxyuridine (BrdU) into DNA was determined using the manufacturer's protocol (Roche Diagnostics). Similarly, for the in vitro wound (migration) experiments, cultured fibroblasts were grown in six-well plates until they reached confluence. The medium was removed, the cells were washed with PBS 3× before culturing was continued in serum-free DMEM containing 0.5% BSA for an additional 24 hours. Thereafter, the monolayer was artificially wounded by using a pipette tip to scratch across the plate; the cells were washed with PBS to remove the detached cells and then cultured in serum-free medium in the presence of mitomyocin C (10 μg/ml) to prevent cell proliferation. The rate of wound healing was quantified as described in the literature […] Caveolin-1 protein expression and PDGF-induced phosphorylation of Akt (20 min) and ERK (10 min) in 24-hr serum starved fibroblasts were determined using a Western-blotting-based technique. A proliferation index encompassing BrdU incorporation into DNA and cell cycle progression was evaluated in response to various growth factors (e.g., IGF, 50 ng; PDGF, 1 nM; EGF, 100 ng) in 24-hr serum starved fibroblast. An in vitro wound-healing model conducted by scratching starved confluent cultured fibroblasts with a pipette tip was used to monitor the impact of PDGF on cell migration. […] In serum-induced proliferating cells in CFs, the optical density at 450 nm (OD450) was more than 10-fold higher than that observed for starved cells.

premature senescence ([1]; DFs) | level/activity of SA-β-gal ([1]; treated DFs compared with DFs) | Compound | rate of proliferation (BrdU incorporation into DNA) [2] | premature senescence [3] | impaired wound healing (rate of wound closure) [4] | increase of proliferation rate (BrdU incorporation) [5] | number of cells that migrated into the cell-free wound zone [6] | relative potency on cell migration among growth factors [6]
can be reversed | significantly lower level | CC1(C)[C@@H](O)CC[C@]2(C)[C@H]3C(=O)C=C4[C@H]5C[C@@](C)(C(=O)O)CC[C@]5(C)CC[C@@]4(C)[C@]3(C)CC[C@@H]12 [18α-GA, 18α-Glycyrrhetinic acid] | increased rate of proliferation | can be reversed | ameliorate impaired wound healing | – | – | –
– | – | IGF: mitotic growth factor | – | – | – | ~6.7 fold | markedly increased | –
– | – | PDGF | – | – | – | approximately 10 fold | markedly increased | most potent among them
